The source made the active and inactive calls. No cut-off for these calls is given here.
Assays:
[1] = biological target: T1, LgtC (Neisseria meningitidis) (UniProt Q93EK7); assay: Inhibition of Neisseria meningitidis LgtC at 50 uM using UDP-Gal donor substrate incubated for 20 mins by malachite green reagent based colorimetric method relative to control
T1 sequence (whole entry): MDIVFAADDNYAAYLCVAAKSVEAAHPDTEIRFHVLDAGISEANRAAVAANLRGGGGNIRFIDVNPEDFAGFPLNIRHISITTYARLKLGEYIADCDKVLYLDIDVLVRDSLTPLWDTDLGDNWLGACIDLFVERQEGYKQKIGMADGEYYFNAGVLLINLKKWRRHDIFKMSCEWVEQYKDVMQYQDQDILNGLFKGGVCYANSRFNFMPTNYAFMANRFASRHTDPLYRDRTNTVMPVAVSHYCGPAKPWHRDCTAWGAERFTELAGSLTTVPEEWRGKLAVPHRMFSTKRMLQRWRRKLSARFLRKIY

[2] = biological target: T1, LgtC (Neisseria meningitidis); assay: (§1) Inhibition of Neisseria meningitidis LgtC using UDP-Gal donor substrate incubated for 20 mins by malachite green reagent based colorimetric method
[3] = biological target: Intestinal-type alkaline phosphatase (Bos taurus) (UniProt P19111); assay: Inhibition of calf intestinal phosphatase up to 100 uM using UDP as substrate measured after 20 mins by malachite green reagent based colorimetric method
Chain of Intestinal-type alkaline phosphatase (Bos taurus) (P19111 20-506 limits assumed): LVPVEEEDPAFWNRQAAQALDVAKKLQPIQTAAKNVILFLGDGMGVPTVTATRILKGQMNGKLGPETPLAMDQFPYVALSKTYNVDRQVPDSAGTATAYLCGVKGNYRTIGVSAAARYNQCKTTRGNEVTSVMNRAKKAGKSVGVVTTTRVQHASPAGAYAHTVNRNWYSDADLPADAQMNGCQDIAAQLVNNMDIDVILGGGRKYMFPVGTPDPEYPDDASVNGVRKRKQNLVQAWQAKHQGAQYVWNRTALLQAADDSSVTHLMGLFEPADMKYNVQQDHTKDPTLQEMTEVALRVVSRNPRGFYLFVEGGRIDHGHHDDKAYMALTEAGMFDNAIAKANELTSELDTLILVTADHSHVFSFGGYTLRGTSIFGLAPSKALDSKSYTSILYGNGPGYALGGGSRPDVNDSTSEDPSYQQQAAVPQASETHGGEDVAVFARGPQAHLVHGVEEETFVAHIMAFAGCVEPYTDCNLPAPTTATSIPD

[4] = Effect on inorganic phosphate reaction with malachite green reagent at 1 mM after 20 mins by colorimetric method; assay type: functional
LgtC = biological target: T2, LgtC (Neisseria meningitidis, UniProt Q93EK7); assay: as §1
T2 sequence (Q93EK7 whole entry): T1 sequence (whole entry)

[5] = Effect on inorganic phosphate reaction with malachite green reagent up to 100 uM after 20 mins by colorimetric method; assay type: functional
Pasteurella multocida = assay: Inhibition of recombinant Pasteurella multocida alpha-(2,3)-sialyltransferase expressed in Escherichia coli BL21 up to 100 uM using CMP-Neu5Ac donor substrate incubated for 20 mins by malachite reagent based colorimetric method
[6] = biological target: T3, Galactoside alpha-(1,2)-fucosyltransferase 2 (Homo sapiens) (UniProt Q10981); assay: Inhibition of recombinant human C-terminal His6-tagged FUT2 (Ile35 to His343 residues) expressed in HEK293 cells at 100 uM using GDP-Fuc donor substrate measured after 20 mins by malachite green reagent based colorimetric method; assay type: cell-based
T3 sequence (whole entry): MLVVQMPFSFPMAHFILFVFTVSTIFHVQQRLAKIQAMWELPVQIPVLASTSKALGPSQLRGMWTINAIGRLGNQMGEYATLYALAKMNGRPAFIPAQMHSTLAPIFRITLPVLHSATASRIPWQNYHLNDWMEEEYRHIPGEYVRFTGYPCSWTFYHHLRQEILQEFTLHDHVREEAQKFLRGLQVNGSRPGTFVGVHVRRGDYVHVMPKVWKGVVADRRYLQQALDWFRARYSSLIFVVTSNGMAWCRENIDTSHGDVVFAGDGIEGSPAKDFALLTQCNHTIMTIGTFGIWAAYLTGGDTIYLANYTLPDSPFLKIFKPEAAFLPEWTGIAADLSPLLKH

[7] = biological target: T1, LgtC (Neisseria meningitidis); assay: Inhibition of Neisseria meningitidis LgtC at 100 uM using UDP-Gal donor substrate incubated for 20 mins by malachite green reagent based colorimetric method relative to control
[8] = biological target: T1, LgtC (Neisseria meningitidis); assay: Inhibition of Neisseria meningitidis LgtC at 100 uM using UDP-Gal donor substrate incubated for 20 mins followed by 5 fold dilution by malachite green reagent based colorimetric method relative to control

SMILES | inhibition [1] | other results
CCOC(=O)c1cccc(N2N=C(C)/C(=C/c3ccncc3)C2=O)c1 | inactive | –
COc1cc(/C=C2\C(=O)N(c3cccc(C(=O)O)c3)N=C2C)cc(OC)c1O | inactive | –
CC1=NN(c2ccccc2)C(=O)/C1=C\c1ccc(C)cc1 | inactive | –
CC1=NN(c2ccccc2)C(=O)/C1=C\c1cccc(C)c1 | inactive | –
CC(=O)O[C@H]1C[C@@H]2CC[C@@H]3[C@H](CC[C@@]4(C)[C@H]3C[C@H]([N+]3(C)CCCCC3)[C@@H]4OC(C)=O)[C@@]2(C)C[C@@H]1[N+]1(C)CCCCC1 | 38% | inhibition [2]: Dose-dependent effect; inhibition [3]: Active; Activity [4]: Active
CC1=NN(c2ccccc2)C(=O)/C1=C\c1ccco1 | inactive | –
CCOC(=O)c1cccc(N2N=C(C)/C(=C/C3CCN(C(=O)OC(C)(C)C)CC3)C2=O)c1 | inactive | –
CC1=NN(c2ccccc2)C(=O)/C1=C\c1ccncc1 | inactive | –
CC1=NN(c2ccccc2)C(=O)/C1=C\c1cccnc1 | inactive | –
CC1=NN(c2ccccc2)C(=O)/C1=C\c1cccc(OCc2ccccc2)c1 | inactive | –
CC1=NN(c2ccccc2)C(=O)/C1=C\c1ccc(Cl)cc1 | inactive | –
CC1=NN(c2ccccc2)C(=O)/C1=C\c1ccccc1O | 10% | –
CC1=NN(c2ccccc2)C(=O)/C1=C\c1ccc(S(C)(=O)=O)cc1 | inactive | –
CC1=NN(c2ccccc2)C(=O)/C1=C\c1ccc(C#N)cc1 | inactive | –
CC1=NN(c2ccccc2)C(=O)/C1=C\c1cccc(O)c1 | inactive | –
COc1ccc2occ(/C=C3\C(=O)N(c4cccc(C(=O)O)c4)N=C3C)c(=O)c2c1 | inactive | –
CC1=NN(c2ccccc2)C(=O)/C1=C\c1cccc([N+](=O)[O-])c1 | inactive | –
CC1=NN(c2ccccc2)C(=O)/C1=C\c1ccccc1C | > 10% | inhibition [2]: Dose-dependent effect; IC50 (LgtC): 30 µM; inhibition [3]: inactive; Activity [5]: inactive; inhibition (Pasteurella multocida): inactive; inhibition [6]: Active
CC1=NN(c2ccccc2)C(=O)/C1=C\c1cc(C(F)(F)F)ccc1C(F)(F)F | inactive | –
CC1=NN(c2ccccc2)C(=O)/C1=C\c1ccc(O)cc1 | inactive | –
CC(=O)O[C@H]1C[C@@H]2CC[C@@H]3[C@H](CC[C@@]4(C)[C@H]3C[C@H]([N+]3(C)CCCCC3)[C@@H]4OC(C)=O)[C@@]2(C)C[C@@H]1N1CCCCC1 | 34% | inhibition [2]: Dose-dependent effect; inhibition [3]: Active; Activity [4]: Active
CC1=NN(c2ccccc2)C(=O)/C1=C\c1ccccc1Cl | > 10% | IC50 (LgtC): 33 µM
CC1=NN(c2ccccc2)C(=O)/C1=C\c1ccccc1C(F)(F)F | – | inhibition [7]: 60%; inhibition [8]: 60%

From ChEMBL document CHEMBL4257475, “Identification of non-substrate-like glycosyltransferase inhibitors from library screening: pitfalls & hits” (Medchemcomm, 2018)
